The source of these data is ChEMBL document CHEMBL1136389, “Structure-activity relationship of a novel class of naphthyl amide KATP channel openers” (Bioorg Med Chem Lett, 2003).

Molecules are shown by their SMILES.

Assay [1] in a line: Selectivity ratio for the reduction of mean arterial pressure to that of unstable […] in anesthetized obstructed male rat. In kind it is functional, Artery.
The test system of assay [2] is Rattus norvegicus. The assay is described as follows: In vivo concentration required for the reduction of mean arterial pressure in anesthetized obstructed male rat, administered intravenously at a dose of 50 nM/Kg. The class given is functional, Artery.
In assay [3] the test system is Rattus norvegicus. The assay is described as follows: In vivo concentration required for the inhibition of unstable contraction in anesthetized obstructed male rat, administered intravenously at a dose of 30 nM/Kg. The class given is functional.
For assay [4], the system named is Rattus norvegicus. The assay is described as follows: In vivo concentration required for the 10% reduction of mean arterial pressure in anesthetized obstructed male rat, administered intravenously at a dose of 50 nM/Kg. The class given is functional, Artery.

Turning to `C[C@](O)(C(=O)Nc1ccc(C(=O)c2ccccc2)cc1)C(F)(F)F` [ZD-6169], the Selectivity ratio in assay [1] was 1.1. This compound displayed an ED10 in the assay on Rattus norvegicus [2] of 1.5 µM/kg. In addition, in the assay with Rattus norvegicus [3], the ED35 is 1.4 µM/kg.

In the case of `CCc1cc(C#N)ccc1Nc1c(N[C@H](C)C(C)(C)C)c(=O)c1=O`, in assay [1], the Selectivity ratio came out at 1.2. In the assay on Rattus norvegicus [2], this compound came in with an ED10 of 0.12 µM/kg. Further, the ED35 in the assay with Rattus norvegicus [3] was found to be 0.1 µM/kg.

With `CC(=O)Nc1c(C(O)(C(F)(F)F)C(F)(F)F)ccc2ccccc12`, the Selectivity ratio in assay [1] was determined as 1.7. This compound had an ED10 in the assay on Rattus norvegicus [4] of 0.05 µM/kg. The compound also displayed an ED35 in the assay on Rattus norvegicus [3] of 0.03 µM/kg.
